Measurements as given in patent US12696901B2, “Pesticidally active heterocyclic derivatives with sulfur containing substituents” (SYNGENTA CROP PROTECTION AG, priority 2020, dated 2026).

How the values were obtained:
Type in all cases: in vivo
[1] = system: Bemisia tabaci (Cotton White Fly); experiment: Activity against Bemisia tabaci (cotton white fly), sprayed cotton leaf discs; details: foliar, 144 h, application rate 200 ppm, adult white flies, 6 days after incubation
Experimental: Example B1: Activity Against Bemisia tabaci (Cotton White Fly)
Cotton leaf discs were placed on agar in 24-well microtiter plates and sprayed with aqueous test solutions prepared from 10,000 ppm DMSO stock solutions. After drying the leaf discs were infested with adult white flies. The samples were checked for mortality 6 days after incubation.

[2] = system: Diabrotica balteata (Corn Root Worm); experiment: Activity against Diabrotica balteata (corn root worm), sprayed maize sprouts on agar; details: 96 h, application rate 200 ppm, L2 larvae, 4 days after infestation, read-out: effect in at least one of the two categories (mortality or growth inhibition)
Experimental: Example B2: Activity Against Diabrotica balteata (Corn Root Worm)
Maize sprouts placed onto an agar layer in 24-well microtiter plates were treated with aqueous test solutions prepared from 10,000 ppm DMSO stock solutions by spraying. After drying, the plates were infested with L2 larvae (6 to 10 per well). The samples were assessed for mortality and growth inhibition in comparison to untreated samples 4 days after infestation.

[3] = system: Euschistus heros (Neotropical Brown Stink Bug); experiment: Activity against Euschistus heros (neotropical brown stink bug), sprayed soybean leaves; details: 120 h, application rate 200 ppm, N2 nymphs, 5 days after infestation, read-out: effect in at least one of the two categories (mortality or growth inhibition)
Experimental: Example B3: Activity Against Euschistus heros (Neotropical Brown Stink Bug)
Soybean leaves on agar in 24-well microtiter plates were sprayed with aqueous test solutions prepared from 10,000 ppm DMSO stock solutions. After drying the leaves were infested with N2 nymphs. The samples were assessed for mortality and growth inhibition in comparison to untreated samples 5 days after infestation.

[4] = system: Frankliniella occidentalis (Western Flower Thrips); experiment: Activity against Frankliniella occidentalis (western flower thrips), sprayed sunflower leaf discs; details: foliar, 168 h, application rate 200 ppm, population of mixed ages, 7 days after infestation
Experimental: Example B4: Activity Against Frankliniella occidentalis (Western Flower Thrips)
(§1) Sunflower leaf discs were placed on agar in 24-well microtiter plates and sprayed with aqueous test solutions prepared from 10,000 ppm DMSO stock solutions. After drying the leaf discs were infested with a Frankliniella population of mixed ages. The samples were assessed for mortality 7 days after infestation.

[5] = system: Plutella xylostella (Diamond Back Moth); experiment: Activity against Plutella xylostella (diamond back moth), treated artificial diet; details: 192 h, application rate 200 ppm, eggs, 8 days after infestation, read-out: effect in at least one of the two categories (mortality or growth inhibition)
Experimental: Example B5: Activity Against Plutella xylostella (Diamond Back Moth)
24-well microtiter plates with artificial diet were treated with aqueous test solutions prepared from 10,000 ppm DMSO stock solutions by pipetting. After drying, Plutella eggs were pipetted through a plastic stencil onto a gel blotting paper and the plate was closed with it. The samples were assessed for mortality and growth inhibition in comparison to untreated samples 8 days after infestation.

[6] = system: Myzus persicae (Green Peach Aphid); experiment: Activity against Myzus persicae (green peach aphid), feeding/contact activity; details: 144 h, application rate 200 ppm, mixed ages, 6 days after infestation
Experimental: Example B6: Activity Against Myzus persicae (Green Peach Aphid) Feeding/Contact Activity
Sunflower leaf discs were placed onto agar in a 24-well microtiter plate and sprayed with aqueous test solutions prepared from 10,000 ppm DMSO stock solutions. After drying, the leaf discs were infested with an aphid population of mixed ages. The samples were assessed for mortality 6 days after infestation.

[7] = system: Spodoptera littoralis (Egyptian Cotton Leaf Worm); experiment: Activity against Spodoptera littoralis (Egyptian cotton leaf worm), sprayed cotton leaf discs; details: foliar, 72 h, application rate 200 ppm, L1 larvae, 3 days after infestation
Experimental: Example B7: Activity Against Spodoptera littoralis (Egyptian Cotton Leaf Worm)
Cotton leaf discs were placed onto agar in 24-well microtiter plates and sprayed with aqueous test solutions prepared from 10,000 ppm DMSO stock solutions. After drying the leaf discs were infested with five L1 larvae. The samples were assessed for mortality, anti-feeding effect, and growth inhibition in comparison to untreated samples 3 days after infestation. Control of Spodoptera littoralis by a test sample is given when at least one of the categories mortality, anti-feedant effect, and growth inhibition is higher than the untreated sample.

[8] = system: Carpocapsa (Cydia) Pomonella (Codling Moth); experiment: Activity against Carpocapsa (Cydia) pomonella (codling moth), sprayed diet cubes; details: 336 h, application rate 12.5 ppm, L1 larvae, 14 days after infestation, read-out: effect in at least one of the two categories (mortality or growth inhibition)
Experimental: Example B11: Activity Against Carpocapsa (Cydia) Pomonella (Codling Moth)
Diet cubes coated with paraffin were sprayed with diluted test solutions in an application chamber. After drying off the treated cubes (10 replicates) were infested with 1 L1 larvae. Samples were incubated at 26-27° C. and checked 14 days after infestation for mortality and growth inhibition. The following compounds gave an effect of at least 80% in at least one of the two categories (mortality or growth inhibition) at an application rate of 12.5 ppm: P1, P2, P3, P4, P5, P6, P10, P11, P12, P14, P15, P16, P17, P19, P20, P21, P22, P24, P27, P29, P30, P33, P34, P35.

[9] = system: Diabrotica balteata (Corn Root Worm); experiment: Activity against Diabrotica balteata (corn root worm), corn seedlings on filter paper in cups; details: 120 h, application rate 3 ppm, L2 larva, 5 days after treatment, read-out: effect in at least one of the two categories (mortality or growth inhibition)
Experimental: Example B12: Activity Against Diabrotica Balteata (Corn Root Worm)
Three corn seedlings were placed on wetted filter paper in plastic cups, and 3 ml of diluted test solutions were pipetted onto them. The cups were infested with 10 L2 larva and checked for mortality and growth regulation 5 days after treatment.

[10] = system: Tetranychus urticae (Two-Spotted Spider Mite); experiment: Activity against Tetranychus urticae (two-spotted spider mite), sprayed bean leaf discs; details: foliar, 192 h, application rate 200 ppm, mixed population (mobile stages), 8 days after infestation
Experimental: Example B9: Activity Against Tetranychus urticae (Two-Spotted Spider Mite)
as §1, with “Bean” for “Sunflower”, “discs” for “discs were placed”, “were” for “and”, “mite” for “Frankliniella”, “on mixed population (mobile stages) 8” for “7”

[11] = system: Chilo suppressalis (Striped Rice Stemborer); experiment: Activity against Chilo suppressalis (striped rice stemborer), treated artificial diet; details: 144 h, application rate 200 ppm, L2 larvae, 6 days after infestation
Experimental: Example B10: Activity Against Chilo suppressalis (Striped Rice Stemborer)
24-well microtiter plates with artificial diet were treated with aqueous test solutions prepared from 10,000 ppm DMSO stock solutions by pipetting. After drying, the plates were infested with L2 larvae (6-8 per well). The samples were assessed for mortality, anti-feeding effect, and growth inhibition in comparison to untreated samples 6 days after infestation. Control of Chilo suppressalis by a test sample is given when at least one of the categories mortality, anti-feedant effect, and growth inhibition is higher than the untreated sample.

CCS(=O)(=O)c1c(N2Cc3ncc(C(F)(F)F)cc3C2=O)nc2cc(C3(C#N)CC3)ccn12 [Compound P3, 1-[3-ethylsulfonyl-2-[5-oxo-3-(trifluoromethyl)-7H-pyrrolo[3,4-b]pyridin-6-yl]imidazo [1,2-a]pyridin-7-yl] cyclopropane-carbonitrile]
≥ 80%: mortality at 200 ppm [1] | percent effect (mortality or growth inhibition) at 200 ppm [2] | percent effect (mortality or growth inhibition) at 200 ppm [3] | mortality at 200 ppm [4] | percent effect (mortality or growth inhibition) at 200 ppm [5] | mortality at 200 ppm [6] | percent control (mortality, anti-feedant effect or growth inhibition) at 200 ppm [7] | percent effect (mortality or growth inhibition) at 12.5 ppm [8] | percent effect (mortality or growth inhibition) at 3 ppm [9]

CCS(=O)(=O)c1c(N2Cc3ccc(OC(F)(F)F)cc3C2=O)nc2cc(C3(C#N)CC3)ccn12 [Compound P5, 1-[3-ethylsulfonyl-2-[1-oxo-6-(trifluoromethoxy)isoindolin-2-yl]imidazo[1,2-a]pyridin-7-yl] cyclopropane-carbonitrile]
≥ 80%: mortality at 200 ppm [1] | percent effect (mortality or growth inhibition) at 200 ppm [2] | percent effect (mortality or growth inhibition) at 200 ppm [3] | mortality at 200 ppm [4] | percent effect (mortality or growth inhibition) at 200 ppm [5] | mortality at 200 ppm [6] | percent control (mortality, anti-feedant effect or growth inhibition) at 200 ppm [7] | percent effect (mortality or growth inhibition) at 12.5 ppm [8] | percent effect (mortality or growth inhibition) at 3 ppm [9]

CCS(=O)(=O)c1c(N2Cc3ccc(OC(F)(F)F)cc3C2=O)nc2ccc(C3(C#N)CC3)cn12 [Compound P14, 1-[3-ethylsulfonyl-2-[1-oxo-6-(trifluoromethoxy)isoindolin-2-yl]imidazo[1,2-a]pyridin-6-yl] cyclopropane-carbonitrile]
≥ 80%: mortality at 200 ppm [1] | percent effect (mortality or growth inhibition) at 200 ppm [2] | percent effect (mortality or growth inhibition) at 200 ppm [3] | mortality at 200 ppm [4] | percent effect (mortality or growth inhibition) at 200 ppm [5] | mortality at 200 ppm [6] | percent control (mortality, anti-feedant effect or growth inhibition) at 200 ppm [7] | mortality at 200 ppm [10] | percent effect (mortality or growth inhibition) at 12.5 ppm [8] | percent effect (mortality or growth inhibition) at 3 ppm [9]

CCS(=O)(=O)c1c(N2Cc3ncc(C(F)(F)F)cc3C2=O)nc2ccc(C3(C#N)CC3)cn12 [Compound P15, 1-[3-ethylsulfonyl-2-[5-oxo-3-(trifluoromethyl)-7H-pyrrolo[3,4-b]pyridin-6-yl]imidazo [1,2-a]pyridin-6-yl] cyclopropane-carbonitrile]
≥ 80%: mortality at 200 ppm [1] | percent effect (mortality or growth inhibition) at 200 ppm [2] | percent effect (mortality or growth inhibition) at 200 ppm [3] | mortality at 200 ppm [4] | percent effect (mortality or growth inhibition) at 200 ppm [5] | mortality at 200 ppm [6] | percent control (mortality, anti-feedant effect or growth inhibition) at 200 ppm [7] | mortality at 200 ppm [10] | percent effect (mortality or growth inhibition) at 12.5 ppm [8] | percent effect (mortality or growth inhibition) at 3 ppm [9]

CCS(=O)(=O)c1c(N2Cc3ccc(C(F)(F)F)cc3C2=O)nc2ccc(C3(C#N)CC3)cn12 [Compound P16, 1-[3-ethylsulfonyl-2-[1-oxo-6-(trifluoromethyl)isoindolin-2-yl]imidazo[1,2-a]pyridin-6-yl] cyclopropane-carbonitrile]
≥ 80%: mortality at 200 ppm [1] | percent effect (mortality or growth inhibition) at 200 ppm [2] | percent effect (mortality or growth inhibition) at 200 ppm [3] | percent effect (mortality or growth inhibition) at 200 ppm [5] | mortality at 200 ppm [6] | percent control (mortality, anti-feedant effect or growth inhibition) at 200 ppm [7] | mortality at 200 ppm [10] | percent effect (mortality or growth inhibition) at 12.5 ppm [8] | percent effect (mortality or growth inhibition) at 3 ppm [9]

CCS(=O)(=O)c1c(N2Cc3ncc(C(F)(F)F)cc3C2=O)nc2ccc(C3CC3)cn12 [Compound P27, 6-(6-cyclopropyl-3-ethylsulfonyl-imidazo [1,2-a]pyridin-2-yl)-3-(trifluoromethyl)-7H-pyrrolo[3,4-b]pyridin-5-one]
≥ 80%: percent effect (mortality or growth inhibition) at 200 ppm [2] | percent effect (mortality or growth inhibition) at 200 ppm [3] | mortality at 200 ppm [4] | percent effect (mortality or growth inhibition) at 200 ppm [5] | mortality at 200 ppm [6] | percent control (mortality, anti-feedant effect or growth inhibition) at 200 ppm [7] | percent control (mortality, anti-feedant effect or growth inhibition) at 200 ppm [11] | percent effect (mortality or growth inhibition) at 12.5 ppm [8] | percent effect (mortality or growth inhibition) at 3 ppm [9]

CCS(=O)(=O)c1c(N2Cc3ccc(S(=O)(=O)C(F)(F)F)cc3C2=O)nc2cc(OCC(F)(F)F)ccn12 [Compound P33, 2-[3-ethylsulfonyl-7-(2,2,2-trifluoroethoxy)imidazo[1,2-a]pyridin-2-yl]-6-(trifluoromethylsulfonyl)isoindolin-1-one]
≥ 80%: mortality at 200 ppm [1] | percent effect (mortality or growth inhibition) at 200 ppm [2] | percent effect (mortality or growth inhibition) at 200 ppm [3] | mortality at 200 ppm [4] | percent effect (mortality or growth inhibition) at 200 ppm [5] | mortality at 200 ppm [6] | percent control (mortality, anti-feedant effect or growth inhibition) at 200 ppm [7] | percent control (mortality, anti-feedant effect or growth inhibition) at 200 ppm [11] | percent effect (mortality or growth inhibition) at 12.5 ppm [8] | percent effect (mortality or growth inhibition) at 3 ppm [9]

CCS(=O)(=O)c1c(N2Cc3ccc(S(=O)(=O)C(F)(F)F)cc3C2=O)nc2cc(C(F)(F)F)ccn12 [Compound P37, 2-[3-ethylsulfonyl-7-(trifluoromethyl)imidazo[1,2-a]pyridin-2-yl]-6-(trifluoromethyl-sulfonyl) isoindolin-1-one]
≥ 80%: mortality at 200 ppm [1] | percent effect (mortality or growth inhibition) at 200 ppm [2] | percent effect (mortality or growth inhibition) at 200 ppm [3] | mortality at 200 ppm [4] | mortality at 200 ppm [6] | percent control (mortality, anti-feedant effect or growth inhibition) at 200 ppm [7] | percent control (mortality, anti-feedant effect or growth inhibition) at 200 ppm [11] | percent effect (mortality or growth inhibition) at 3 ppm [9]
